Test results: patent US20240158370A1, “CK1 alpha AND DUAL CK1 alpha / GSPT1 DEGRADING COMPOUNDS” (Innovo Therapeutics, Inc., priority 2022, published 2024)

Columns and labels:
GSPT1 = GSPT1 (Homo sapiens, UniProt P15170+Q96SW2); assay: HiBiT degradation assay, GSPT1, Procedure A; assay type: cell-based; parameters: HiBit-GSPT1 KI HEK293(LgBit) Cells; host or cells: HEK293(LgBit) knock-in cells
Summary of the method: (§1)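 DC50 and Ymin (% remaining) were derived by four-parameter fitting of luminescence data. The data come from a six-hour, 37° C compound exposure of cells in DMEM/10% FBS over a ten-point range, 10 μM to 0.005 μM, followed by Nano-Glo HiBiT lytic detection.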

CK1α = target: T1, CK1α (Homo sapiens, UniProt P48729+Q96SW2); assay: HiBiT degradation assay, CK1α, Procedure A; assay type: cell-based
T1 construct: CSNK1A1-HiBit KI HEK293(LgBit) Cells; host or cells: HEK293(LgBit) knock-in cells
T1 sequence (P48729 whole entry): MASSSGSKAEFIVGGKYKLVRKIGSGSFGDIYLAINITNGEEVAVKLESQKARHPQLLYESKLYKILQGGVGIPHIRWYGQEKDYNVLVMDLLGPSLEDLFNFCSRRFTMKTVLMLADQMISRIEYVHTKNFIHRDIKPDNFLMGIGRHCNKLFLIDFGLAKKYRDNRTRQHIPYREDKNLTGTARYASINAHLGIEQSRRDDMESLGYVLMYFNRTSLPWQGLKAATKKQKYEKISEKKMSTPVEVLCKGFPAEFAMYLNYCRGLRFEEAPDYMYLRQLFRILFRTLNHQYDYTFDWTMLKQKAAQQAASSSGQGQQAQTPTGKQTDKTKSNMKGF
T1 sequence (Q96SW2 whole entry): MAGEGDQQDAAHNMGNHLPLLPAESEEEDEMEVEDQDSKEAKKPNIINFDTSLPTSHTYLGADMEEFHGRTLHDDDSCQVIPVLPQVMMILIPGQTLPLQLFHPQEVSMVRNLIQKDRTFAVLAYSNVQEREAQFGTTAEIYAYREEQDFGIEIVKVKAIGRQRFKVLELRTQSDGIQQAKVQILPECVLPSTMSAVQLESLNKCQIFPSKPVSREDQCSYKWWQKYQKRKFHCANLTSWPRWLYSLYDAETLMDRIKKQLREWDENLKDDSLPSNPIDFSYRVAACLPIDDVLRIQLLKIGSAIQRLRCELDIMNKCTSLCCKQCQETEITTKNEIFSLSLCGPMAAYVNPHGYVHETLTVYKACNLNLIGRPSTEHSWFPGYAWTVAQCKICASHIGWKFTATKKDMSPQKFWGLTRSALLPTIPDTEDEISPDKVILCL
T1 sequence (Q16531 whole entry partner): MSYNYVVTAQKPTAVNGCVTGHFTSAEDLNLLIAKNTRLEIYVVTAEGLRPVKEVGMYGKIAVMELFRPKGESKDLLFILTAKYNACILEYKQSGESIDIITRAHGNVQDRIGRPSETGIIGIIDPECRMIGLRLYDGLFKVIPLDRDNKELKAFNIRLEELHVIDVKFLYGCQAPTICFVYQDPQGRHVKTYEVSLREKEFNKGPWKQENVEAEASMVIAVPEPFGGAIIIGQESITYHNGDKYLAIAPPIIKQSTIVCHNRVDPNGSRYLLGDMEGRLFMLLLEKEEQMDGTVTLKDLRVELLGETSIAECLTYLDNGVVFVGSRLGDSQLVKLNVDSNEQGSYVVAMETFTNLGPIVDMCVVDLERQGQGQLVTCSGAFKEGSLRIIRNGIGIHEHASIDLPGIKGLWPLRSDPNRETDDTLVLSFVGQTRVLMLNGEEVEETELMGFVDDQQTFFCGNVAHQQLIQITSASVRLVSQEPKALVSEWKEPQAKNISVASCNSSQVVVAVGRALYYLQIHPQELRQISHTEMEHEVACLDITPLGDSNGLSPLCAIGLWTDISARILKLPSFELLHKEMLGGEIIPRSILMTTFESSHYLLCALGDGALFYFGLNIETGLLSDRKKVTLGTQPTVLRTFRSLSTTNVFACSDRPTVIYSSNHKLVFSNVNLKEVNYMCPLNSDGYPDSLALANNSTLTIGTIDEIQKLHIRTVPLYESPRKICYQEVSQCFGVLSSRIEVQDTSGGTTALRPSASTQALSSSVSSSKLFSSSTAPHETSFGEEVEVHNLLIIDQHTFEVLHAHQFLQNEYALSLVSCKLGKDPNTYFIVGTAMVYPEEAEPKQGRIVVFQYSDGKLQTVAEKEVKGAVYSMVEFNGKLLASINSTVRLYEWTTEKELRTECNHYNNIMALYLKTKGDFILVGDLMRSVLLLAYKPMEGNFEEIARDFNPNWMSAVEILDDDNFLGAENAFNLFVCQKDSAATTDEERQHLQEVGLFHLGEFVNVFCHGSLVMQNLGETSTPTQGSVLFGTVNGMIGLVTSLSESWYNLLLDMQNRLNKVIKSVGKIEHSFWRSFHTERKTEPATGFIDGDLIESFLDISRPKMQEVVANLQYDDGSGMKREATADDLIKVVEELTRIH
Summary of the method: as §1

Chain of GSPT1 (P15170 whole entry): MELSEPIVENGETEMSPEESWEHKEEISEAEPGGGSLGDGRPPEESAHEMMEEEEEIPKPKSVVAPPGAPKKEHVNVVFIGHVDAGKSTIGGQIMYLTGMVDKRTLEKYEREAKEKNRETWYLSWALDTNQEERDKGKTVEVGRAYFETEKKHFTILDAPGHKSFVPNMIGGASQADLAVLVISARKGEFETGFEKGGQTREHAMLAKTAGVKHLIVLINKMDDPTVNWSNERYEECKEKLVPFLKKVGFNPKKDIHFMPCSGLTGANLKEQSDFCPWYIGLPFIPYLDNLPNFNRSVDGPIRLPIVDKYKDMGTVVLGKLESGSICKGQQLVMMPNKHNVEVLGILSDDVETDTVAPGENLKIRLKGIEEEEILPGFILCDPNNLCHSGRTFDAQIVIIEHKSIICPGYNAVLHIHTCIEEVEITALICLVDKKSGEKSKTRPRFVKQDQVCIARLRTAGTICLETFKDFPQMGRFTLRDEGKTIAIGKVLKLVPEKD
Chain of GSPT1 (Q96SW2 whole entry): as the sequence (Q96SW2 whole entry) above
Chain of GSPT1 (Q16531 whole entry partner): as the sequence (Q16531 whole entry partner) above

Row | SMILES | DC50 (GSPT1; six hours incubation) [µM] | GSPT1 Ymin (GSPT1; six hours incubation) | CK1α Ymin (CK1α; six hours incubation) | DC50 (CK1α; six hours incubation) [µM] | DC50 (GSPT1; six hours) [µM] | GSPT1 Ymin (GSPT1; six hours) | CK1α Ymin (CK1α; six hours) | DC50 (CK1α; six hours) [µM]
1 | Cc1ccc(-c2c(-c3ccc4c(c3)CN(C3CCC(=O)NC3=O)C4=O)cnn2C)c(Cl)c1 (stereo not drawn) [Example 85] | ≥ 0.025 | F (F = >75-100% remaining) | E (E = >25-75% remaining) | < 0.025 | – | – | – | –
2 | Cn1c(C2OCCCO2)nc(-c2ccc3c(c2)CN(C2CCC(=O)NC2=O)C3=O)c1-c1ccccc1 (stereo not drawn) [Example 419, 3-(5-(2-(1,3-dioxan-2-yl)-1-methyl-5-phenyl-1H-imidazol-4-yl)-1-oxoisoindolin-2-yl)piperidine-2,6-dione] | – | – | – | – | ≥ 0.025 | F (F = >75-100% remaining) | C (C = 0-10% remaining) | < 0.025
3 | Cn1ncc(-c2ccc3c(c2)CN(C2CCC(=O)NC2=O)C3=O)c1-c1ccc(N)cc1 (stereo not drawn) [Example 124] | ≥ 0.025 | F (F = >75-100% remaining) | C (C = 0-10% remaining) | < 0.025 | – | – | – | –
4 | Cn1ncc(-c2ccc3c(c2)CN(C2CCC(=O)NC2=O)C3=O)c1-c1ccc(C2(C#N)CC2)cc1 (stereo not drawn) [Example 110] | ≥ 0.025 | F (F = >75-100% remaining) | E (E = >25-75% remaining) | < 0.025 | – | – | – | –
5 | Cn1ncc(-c2ccc3c(c2)CN(C2CCC(=O)NC2=O)C3=O)c1-c1cnc2sccc2c1 (stereo not drawn) [Example 394] | – | – | – | – | ≥ 0.025 | F (F = >75-100% remaining) | E (E = >25-75% remaining) | ≥ 0.025
6 | Cc1cc(-c2c(-c3ccc4c(c3)CN(C3CCC(=O)NC3=O)C4=O)cnn2C)ccn1 (stereo not drawn) [Example 368] | < 0.025 | F (F = >75-100% remaining) | E (E = >25-75% remaining) | < 0.025 | – | – | – | –
7 | [2H]C([2H])([2H])n1ncc(-c2ccc3c(c2)CN(C2CCC(=O)NC2=O)C3=O)c1-c1ccc(OC(F)F)cc1 (stereo not drawn) [Example 436, 3-(5-(5-(4-(difluoromethoxy)phenyl)-1-(methyl-d3)-1H-pyrazol-4-yl)-1-oxoisoindolin-2-yl)piperidine-2,6-dione] | – | – | – | – | ≥ 0.025 | F (F = >75-100% remaining) | D (D = >10- 25% remaining) | < 0.025
8 | Cn1ncc(-c2ccc3c(c2)CN(C2CCC(=O)NC2=O)C3=O)c1-c1ccc(O)cc1 (stereo not drawn) [Example 142] | ≥ 0.025 | F (F = >75-100% remaining) | D (D = >10- 25% remaining) | < 0.025 | – | – | – | –
9 | Cn1c(C2CCCCC2)nc(-c2ccc3c(c2)CN(C2CCC(=O)NC2=O)C3=O)c1-c1ccccc1 (stereo not drawn) [Example 49, 3-(5-(2-Cyclohexyl-1-methyl-5-phenyl-1H-imidazol-4-yl)-1-oxoisoindolin-2-yl)piperidine-2,6-dione] | < 0.025 | F (F = >75-100% remaining) | C (C = 0-10% remaining) | < 0.025 | – | – | – | –
10 | Cn1ncc(-c2ccc3c(c2)CN(C2CCC(=O)NC2=O)C3=O)c1-c1cccnc1N (stereo not drawn) [Example 453] | – | – | – | – | ≥ 0.025 | F (F = >75-100% remaining) | E (E = >25-75% remaining) | < 0.025
11 | Cn1ncc(-c2ccc3c(c2)CN(C2CCC(=O)NC2=O)C3=O)c1-c1ccc(-c2ccc(C#N)cc2)cc1 (stereo not drawn) [Example 101] | ≥ 0.025 | F (F = >75-100% remaining) | E (E = >25-75% remaining) | < 0.025 | – | – | – | –
12 | COc1cncc(-c2c(-c3ccc4c(c3)CN(C3CCC(=O)NC3=O)C4=O)cnn2C)c1 (stereo not drawn) [Example 456] | – | – | – | – | ≥ 0.025 | F (F = >75-100% remaining) | E (E = >25-75% remaining) | ≥ 0.025

Second part, the compound after the results:

Row | DC50 (GSPT1; six hours incubation) [µM] | GSPT1 Ymin (GSPT1; six hours incubation) | CK1α Ymin (CK1α; six hours incubation) | DC50 (CK1α; six hours incubation) [µM] | DC50 (GSPT1; six hours) [µM] | GSPT1 Ymin (GSPT1; six hours) | CK1α Ymin (CK1α; six hours) | DC50 (CK1α; six hours) [µM] | SMILES
13 | < 0.025 | F (F = >75-100% remaining) | D (D = >10- 25% remaining) | < 0.025 | – | – | – | – | COc1ccc(F)c(-c2c(-c3ccc4c(c3)CN(C3CCC(=O)NC3=O)C4=O)ncn2C)c1 (stereo not drawn) [Example 193]
14 | ≥ 0.025 | E (E = >25-75% remaining) | E (E = >25-75% remaining) | ≥ 0.025 | – | – | – | – | Cc1nn(C)c(-c2ccc3c(c2)CN(C2CCC(=O)NC2=O)C3=O)c1-c1ccccc1 (stereo not drawn) [Example 18, 3-(5-(1,3-Dimethyl-4-phenyl-1H-pyrazol-5-yl)-1-oxoisoindolin-2-yl)piperidine-2,6-dione]
15 | – | – | – | – | ≥ 0.025 | F (F = >75-100% remaining) | D (D = >10- 25% remaining) | < 0.025 | Cn1cnc(-c2ccc3c(c2)CN(C2CCC(=O)NC2=O)C3=O)c1-c1ccc2cccnc2c1 (stereo not drawn) [Example 493]
16 | ≥ 0.025 | F (F = >75-100% remaining) | E (E = >25-75% remaining) | < 0.025 | – | – | – | – | Cn1cnc(-c2ccc3c(c2)CN(C2CCC(=O)NC2=O)C3=O)c1-c1ccc2c(c1)OCC2 (stereo not drawn) [Example 245]
17 | ≥ 0.025 | F (F = >75-100% remaining) | E (E = >25-75% remaining) | < 0.025 | – | – | – | – | Cn1cnc(-c2ccc3c(c2)CN(C2CCC(=O)NC2=O)C3=O)c1-c1cccc(-c2ccccc2)c1 (stereo not drawn) [Example 291]
18 | ≥ 0.025 | F (F = >75-100% remaining) | E (E = >25-75% remaining) | ≥ 0.025 | – | – | – | – | Cn1cnc(-c2cc3c(s2)C(=O)N(C2CCC(=O)NC2=O)C3)c1-c1ccccc1 (stereo not drawn) [Example 16, 3-(2-(1-methyl-5-phenyl-1H-imidazol-4-yl)-6-oxo-4,6-dihydro-5H-thieno[2,3-c]pyrrol-5-yl)piperidine-2,6-dione]
19 | ≥ 0.025 | – | E (E = >25-75% remaining) | < 0.025 | – | – | – | – | Cn1cnc(-c2ccc3c(c2)CN(C2CCC(=O)NC2=O)C3=O)c1-c1cccc(C#N)c1F (stereo not drawn) [Example 247]
20 | ≥ 0.025 | F (F = >75-100% remaining) | E (E = >25-75% remaining) | < 0.025 | – | – | – | – | CC(C)c1ccc(-c2c(-c3ccc4c(c3)CN(C3CCC(=O)NC3=O)C4=O)ncn2C)cc1 (stereo not drawn) [Example 246]
21 | – | – | – | – | ≥ 0.025 | F (F = >75-100% remaining) | E (E = >25-75% remaining) | ≥ 0.025 | Cn1cnc(-c2ccc3c(c2)CN(C2CCC(=O)NC2=O)C3=O)c1-c1ccc2ncnn2c1 (stereo not drawn) [Example 490]
22 | ≥ 0.025 | F (F = >75-100% remaining) | E (E = >25-75% remaining) | < 0.025 | – | – | – | – | Cn1cnc(-c2ccc3c(c2)CN(C2CCC(=O)NC2=O)C3=O)c1-c1cccc(N2CCOCC2)c1 (stereo not drawn) [Example 297]
23 | < 0.025 | F (F = >75-100% remaining) | E (E = >25-75% remaining) | < 0.025 | – | – | – | – | COc1cccc(-c2c(-c3ccc4c(c3)CN(C3CCC(=O)NC3=O)C4=O)ncn2C)c1Cl (stereo not drawn) [Example 277]
24 | ≥ 0.025 | F (F = >75-100% remaining) | E (E = >25-75% remaining) | < 0.025 | – | – | – | – | Cn1ncc(-c2ccc3c(c2)CN(C2CCC(=O)NC2=O)C3=O)c1-c1ccc(OCc2ccccc2)cc1 (stereo not drawn) [Example 61]
25 | – | – | – | – | < 0.025 | F (F = >75-100% remaining) | F (F = >75-100% remaining) | < 0.025 | Cn1cnc(-c2ccc3c(c2)CN(C2CCC(=O)NC2=O)C3=O)c1-c1cncc(OCc2ccccc2)c1 (stereo not drawn) [Example 405]
26 | ≥ 0.025 | F (F = >75-100% remaining) | D (D = >10- 25% remaining) | ≥ 0.025 | – | – | – | – | COc1cc(-c2c(-c3ccc4c(c3)CN(C3CCC(=O)NC3=O)C4=O)ncn2C)ccc1Cl (stereo not drawn) [Example 351]
27 | < 0.025 | F (F = >75-100% remaining) | D (D = >10- 25% remaining) | < 0.025 | – | – | – | – | Cn1cnc(-c2ccc3c(c2)CN(C2CCC(=O)NC2=O)C3=O)c1-c1ccc(Cl)c(F)c1 (stereo not drawn) [Example 260]
28 | ≥ 0.025 | F (F = >75-100% remaining) | D (D = >10- 25% remaining) | ≥ 0.025 | – | – | – | – | CN(C)C(=O)c1cccc(-c2c(-c3ccc4c(c3)CN(C3CCC(=O)NC3=O)C4=O)ncn2C)c1 (stereo not drawn) [Example 290]
